Data from patent publication US20230212549A1, “COMPOUNDS COMPRISING A […] LIGAND AND USE THEREOF” (priority 2021, published 2023).
Numbered stars: 1 amine (or outer) side, 2 acyl side, 3 side chain; on linkers, the order of the positions; unused ones are H or OH. Bridge positions count the residues as written; N and C are the ends. Square brackets hold non-standard residues; d marks the D form. Peptide text beside a SMILES is read from it. * marks the point of attachment. TBMB(SCH2CH2NH-DOTA) = O=C(O)CN1CCN(CC(=O)O)CCN(CC(=O)NCCSCc2cc(C[*:1])cc(C[*:2])c2)CCN(CC(=O)O)CC1; X13 = O=C(O)CN1CCN(CC(=O)O)CCN(CC(=O)N2CCN(Cc3cc(C[*:1])cc(C[*:2])c3)CC2)CCN(CC(=O)O)CC1; X18 = NCCNCC(CNCCN)C(=O)N[C@@H](CCC(=O)O)C(=O)NCCCOCCOCCOCCCN*; mXylylene = c1cc(C[*:1])cc(C[*:2])c1; Pentanesulfonyl = CCCCCS(=O)(=O)*; Suc = O=C(CCC(=O)[*:2])[*:1]; Nle = CCCC[C@H](N)C(=O)O; Hexanoyl = CCCCCC(=O)*; Sar = CNCC(=O)O

Tests used:
[1] = molecular target: T1, FAP-expressing human WI-38 fibroblasts (Homo sapiens, UniProt Q12884); experiment: Competitive FACS binding assay
T1 construct: FAP-expressing human WI-38 fibroblasts (ECACC) were cultured in EMEM; host or cells: WI-38 human fibroblasts
T1 sequence (Q12884 whole entry): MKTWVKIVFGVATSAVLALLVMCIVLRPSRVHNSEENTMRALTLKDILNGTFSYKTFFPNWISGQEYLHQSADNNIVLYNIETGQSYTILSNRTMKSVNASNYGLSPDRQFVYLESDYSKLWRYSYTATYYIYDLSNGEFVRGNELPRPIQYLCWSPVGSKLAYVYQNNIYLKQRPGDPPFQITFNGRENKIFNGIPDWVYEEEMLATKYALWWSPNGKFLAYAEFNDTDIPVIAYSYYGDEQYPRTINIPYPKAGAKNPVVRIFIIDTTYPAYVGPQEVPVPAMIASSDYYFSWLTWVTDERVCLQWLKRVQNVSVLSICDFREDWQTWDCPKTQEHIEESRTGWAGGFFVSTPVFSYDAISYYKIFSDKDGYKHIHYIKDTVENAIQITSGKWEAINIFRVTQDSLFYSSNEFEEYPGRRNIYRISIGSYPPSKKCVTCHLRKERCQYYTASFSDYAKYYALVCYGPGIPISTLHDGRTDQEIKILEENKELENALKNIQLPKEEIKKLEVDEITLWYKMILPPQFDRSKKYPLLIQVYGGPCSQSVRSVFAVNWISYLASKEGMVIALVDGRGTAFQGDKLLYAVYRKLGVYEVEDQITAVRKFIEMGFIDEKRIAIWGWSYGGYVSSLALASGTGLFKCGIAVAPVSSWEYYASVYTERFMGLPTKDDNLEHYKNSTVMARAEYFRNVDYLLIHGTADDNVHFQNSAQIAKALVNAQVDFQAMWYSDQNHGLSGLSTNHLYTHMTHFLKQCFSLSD
Description: Cells were analyzed in an Attune NxT flow cytometer. […] […].
Cells were analyzed in an Attune NxT flow cytometer. […]

Human recombinant FAP [2] = molecular target: T2, Human recombinant FAP (Homo sapiens, UniProt Q12884); experiment: Surface plasmon resonance (Biacore) assay; assay type: binding; settings: for pKD Category: Biacore assay
T2 sequence (Q12884 whole entry): as above

Human recombinant FAP [3] = molecular target: T2, Human recombinant FAP; experiment: FRET-based FAP protease activity assay; assay type: biochemical; set-up: purchased R&D systems 3715-SE; settings: pIC50 Category (Activity), 37° C.
[4] = FRET-based FAP protease activity assay, recombinant human FAP

Row | Compound | IC50 [1] [nM] | Kd (Human recombinant FAP [2]) [nM] | IC50 (Human recombinant FAP [3]; [4]) [nM] | pKD Category (Human recombinant FAP [2]) | IC50 (Human recombinant FAP [3]; FRET-peptide substrate) [nM]
1 | CCCCCC(=O)N[C@H]1CSCc2cc(CSCCNC(=O)CN3CCN(CC(=O)O)CCN(CC(=O)O)CCN(CC(=O)O)CC3)cc(c2)CSC[C@@H](C(N)=O)NC(=O)[C@H](Cc2ccccc2)NC(=O)[C@H](CCC(N)=O)NC(=O)[C@H]([C@@H](C)O)NC(=O)[C@@H]2CCCN2C(=O)[C@@H]2CCCN2C1=O [3BP-3652, Hex-[Cys(tMeBn(DOTA-AET))-Pro-Pro-Thr-Gln-Phe-Cys]-NH2] | < 10 | < 10 | < 10 | – | –
2 | CCCCCC(=O)N[C@H]1CSCc2cc(CSCCNC(=O)CN3CCN(CC(=O)O)CCN(CC(=O)O)CCN(CC(=O)O)CC3)cc(c2)CSC[C@@H](C(N)=O)NC(=O)[C@H](Cc2ccccc2)NC(=O)[C@H](CCC(=O)O)NC(=O)[C@H]([C@@H](C)O)NC(=O)[C@@H]2CCCN2C(=O)[C@@H]2CCCN2C1=O [3BP-3653, Hex-[Cys(tMeBn(DOTA-AET))-Pro-Pro-Thr-Glu-Phe-Cys]-NH2] (Hexanoyl-CPPTEFC-NH2; linker 1-7 via TBMB(SCH2CH2NH-DOTA)) | < 10 | < 10 | < 10 | – | –
3 | CCCCCC(=O)N[C@H]1CSCc2cc(CSCCNC(=O)CN3CCN(CC(=O)O)CCN(CC(=O)O)CCN(CC(=O)O)CC3)cc(c2)CSC[C@@H](C(=O)NCC(=O)O)NC(=O)[C@H](Cc2ccccc2)NC(=O)[C@H](CCC(N)=O)NC(=O)[C@H]([C@@H](C)O)NC(=O)[C@@H]2CCCN2C(=O)[C@@H]2CCCN2C1=O [3BP-3656, Hex-[Cys(tMeBn(DOTA-AET))-Pro-Pro-Thr-Gln-Phe-Cys]-Gly-OH] (Hexanoyl-CPPTQFCG-OH; linker 1-7 via TBMB(SCH2CH2NH-DOTA)) | < 10 | < 10 | < 10 | – | –
4 | CCCCCC(=O)N[C@H]1CSCc2cc(CSCCNC(=O)CN3CCN(CC(=O)O)CCN(CC(=O)O)CCN(CC(=O)O)CC3)cc(c2)CSC[C@@H](C(=O)NCCCC(=O)O)NC(=O)[C@H](Cc2ccccc2)NC(=O)[C@H](CCC(N)=O)NC(=O)[C@H]([C@@H](C)O)NC(=O)[C@@H]2CCCN2C(=O)[C@@H]2CCCN2C1=O [3BP-3657, Hex-[Cys(tMeBn(DOTA-AET))-Pro-Pro-Thr-Gln-Phe-Cys]-Gab-OH] | < 10 | < 10 | < 10 | – | –
5 | CCCCCC(=O)N[C@H]1CSCc2cc(CSCCNC(=O)CN3CCN(CC(=O)O)CCN(CC(=O)O)CCN(CC(=O)O)CC3)cc(c2)CSC[C@@H](C(=O)N[C@@H](CO)C(=O)O)NC(=O)[C@H](Cc2ccccc2)NC(=O)[C@H](CCC(N)=O)NC(=O)[C@H]([C@@H](C)O)NC(=O)[C@@H]2CCCN2C(=O)[C@@H]2CCCN2C1=O [3BP-3658, Hex-[Cys(tMeBn(DOTA-AET))-Pro-Pro-Thr-Gln-Phe-Cys]-Ser-OH] (Hexanoyl-CPPTQFCS-OH; linker 1-7 via TBMB(SCH2CH2NH-DOTA)) | < 10 | < 10 | < 10 | – | –
6 | CCCCCC(=O)N[C@H]1CSCc2cc(CSCCNC(=O)CN3CCN(CC(=O)O)CCN(CC(=O)O)CCN(CC(=O)O)CC3)cc(c2)CSC[C@@H](C(=O)N(C)CC(=O)O)NC(=O)[C@H](Cc2ccccc2)NC(=O)[C@H](CCC(N)=O)NC(=O)[C@H]([C@@H](C)O)NC(=O)[C@@H]2CCCN2C(=O)[C@@H]2CCCN2C1=O [3BP-3659, Hex-[Cys(tMeBn(DOTA-AET))-Pro-Pro-Thr-Gln-Phe-Cys]-Nmg-OH] | < 10 | < 10 | < 10 | – | –
7 | CCCCCC(=O)N[C@H]1CSCc2cc(CSCCNC(=O)CN3CCN(CC(=O)O)CCN(CC(=O)O)CCN(CC(=O)O)CC3)cc(c2)CSC[C@@H](C(=O)N[C@H](CC(=O)O)Cc2ccccc2)NC(=O)[C@H](Cc2ccccc2)NC(=O)[C@H](CCC(N)=O)NC(=O)[C@H]([C@@H](C)O)NC(=O)[C@@H]2CCCN2C(=O)[C@@H]2CCCN2C1=O [3BP-3660, Hex-[Cys(tMeBn(DOTA-AET))-Pro-Pro-Thr-Gin-Phe-Cys]-Bhf-OH] | < 10 | < 10 | < 10 | – | –
8 | CCCCCC(=O)N[C@H]1CSCc2cc(CSCCNC(=O)CN3CCN(CC(=O)O)CCN(CC(=O)O)CCN(CC(=O)O)CC3)cc(c2)CSC[C@@H](C(=O)O)NC(=O)[C@H](Cc2ccccc2)NC(=O)[C@H](CCC(N)=O)NC(=O)[C@H]([C@@H](C)O)NC(=O)[C@@H]2CCCN2C(=O)CN(C)C1=O [3BP-3678, Hex-[Cys(tMeBn(DOTA-AET))-Nmg-Pro-Thr-Gln-Phe-Cys]-OH] (Hexanoyl-C[Sar]PTQFC-OH; linker 1-7 via TBMB(SCH2CH2NH-DOTA)) | < 10 | < 10 | < 10 | – | –
9 | CCCCCC(=O)N[C@H]1CSCc2cc(CSCCNC(=O)CN3CCN(CC(=O)O)CCN(CC(=O)O)CCN(CC(=O)O)CC3)cc(c2)CSC[C@@H](C(=O)O)NC(=O)[C@H](Cc2ccccc2)NC(=O)[C@H](CCC(N)=O)NC(=O)[C@H]([C@@H](C)O)NC(=O)[C@@H]2C[C@@H](O)CN2C(=O)[C@@H]2CCCN2C1=O [3BP-3679, Hex-[Cys(tMeBn(DOTA-AET))-Pro-Hyp-Thr-Gln-Phe-Cys]-OH] | < 10 | < 10 | < 10 | – | –
10 | CCCCCC(=O)N[C@H]1CSCc2cc(CSCCNC(=O)CN3CCN(CC(=O)O)CCN(CC(=O)O)CCN(CC(=O)O)CC3)cc(c2)CSC[C@@H](C(=O)O)NC(=O)[C@H](Cc2ccccc2C(F)(F)F)NC(=O)[C@H](CCC(N)=O)NC(=O)[C@H]([C@@H](C)O)NC(=O)[C@@H]2CCCN2C(=O)[C@@H]2CCCN2C1=O [3BP-3680, Hex-[Cys(tMeBn(DOTA-AET))-Pro-Pro-Thr-Gln-Otf-Cys]-OH] | < 10 | < 10 | < 10 | – | –
11 | CCCCCC(=O)N[C@H]1CSCc2cc(CSCCNC(=O)CN3CCN(CC(=O)O)CCN(CC(=O)O)CCN(CC(=O)O)CC3)cc(c2)CSC[C@@H](C(=O)N[C@H](CC(=O)O)C(N)=O)NC(=O)[C@H](Cc2ccccc2)NC(=O)[C@H](CCC(N)=O)NC(=O)[C@H]([C@@H](C)O)NC(=O)[C@@H]2CCCN2C(=O)[C@@H]2CCCN2C1=O [3BP-3681, Hex-[Cys(tMeBn(DOTA-AET))-Pro-Pro-Thr-Gln-Phe-Cys]-asp-NH2] | < 10 | < 10 | < 10 | – | –
12 | CCCCCS(=O)(=O)N[C@H]1CSCc2cc(cc(CN3CCN(C(=O)CN4CCN(CC(=O)O)CCN(CC(=O)O)CCN(CC(=O)O)CC4)CC3)c2)CSC[C@@H](C(=O)N[C@@H](CC(=O)O)C(N)=O)NC(=O)[C@H](Cc2ccccc2)NC(=O)[C@H](CCC(N)=O)NC(=O)[C@H]([C@@H](C)O)NC(=O)[C@@H]2CCCN2C(=O)[C@@H]2CCCN2C1=O [3BP-3692, Pentyl-SO2-[Cys(tMeBn(DOTA-PP))-Pro-Pro-Thr-Gln-Phe-Cys]-Asp-NH2] (Pentanesulfonyl-CPPTQFCD-NH2; linker 1-7 via X13) | < 10 | < 10 | < 10 | – | –
13 | CC(C)CCC(=O)N[C@H]1CSCc2cc(CSCCNC(=O)CN3CCN(CC(=O)O)CCN(CC(=O)O)CCN(CC(=O)O)CC3)cc(c2)CSC[C@@H](C(=O)O)NC(=O)[C@H](Cc2ccccc2)NC(=O)[C@H](CCC(N)=O)NC(=O)[C@H]([C@@H](C)O)NC(=O)[C@@H]2CCCN2C(=O)[C@@H]2CCCN2C1=O [3BP-3907, iHex-[Cys(tMeBn(DOTA-AET))-Pro-Pro-Thr-Gln-Phe-Cys]-OH] | < 10 | < 10 | – | A (Category A stands for pKD values >8.0) | < 10
14 | CCCCC(=O)N[C@H]1CSCc2cc(CSCCNC(=O)CN3CCN(CC(=O)O)CCN(CC(=O)O)CCN(CC(=O)O)CC3)cc(c2)CSC[C@@H](C(=O)O)NC(=O)[C@H](Cc2ccccc2)NC(=O)[C@H](CCC(N)=O)NC(=O)[C@H]([C@@H](C)O)NC(=O)[C@@H]2CCCN2C(=O)[C@@H]2CCCN2C1=O [3BP-3910, Pent-[Cys(tMeBn(DOTA-AET))-Pro-Pro-Thr-Gln-Phe-Cys]-OH] | < 10 | < 10 | – | A (Category A stands for pKD values >8.0) | < 10
15 | CCOCCC(=O)N[C@H]1CSCc2cc(CSCCNC(=O)CN3CCN(CC(=O)O)CCN(CC(=O)O)CCN(CC(=O)O)CC3)cc(c2)CSC[C@@H](C(=O)O)NC(=O)[C@H](Cc2ccccc2)NC(=O)[C@H](CCC(N)=O)NC(=O)[C@H]([C@@H](C)O)NC(=O)[C@@H]2CCCN2C(=O)[C@@H]2CCCN2C1=O [3BP-3918, EtOPr-[Cys(tMeBn(DOTA-AET))-Pro-Pro-Thr-Gln-Phe-Cys]-OH] | < 10 | < 10 | – | A (Category A stands for pKD values >8.0) | < 10
16 | CCCCOC(=O)N[C@H]1CSCc2cc(CSCCNC(=O)CN3CCN(CC(=O)O)CCN(CC(=O)O)CCN(CC(=O)O)CC3)cc(c2)CSC[C@@H](C(=O)O)NC(=O)[C@H](Cc2ccccc2)NC(=O)[C@H](CCC(N)=O)NC(=O)[C@H]([C@@H](C)O)NC(=O)[C@@H]2CCCN2C(=O)[C@@H]2CCCN2C1=O [3BP-3941, nBu-COyl-[Cys(tMeBn(DOTA-AET))-Pro-Pro-Thr-Gln-Phe-Cys]-OH] | < 10 | < 10 | – | – | < 10
17 | CCCC[C@H](NC(=O)CCC(=O)NCCCOCCOCCOCCCNC(=O)[C@H](CCC(=O)O)NC(=O)C(CNCCN)CNCCN)C(=O)N[C@H]1CSCc2cccc(c2)CSC[C@@H](C(=O)O)NC(=O)[C@H](Cc2ccccc2)NC(=O)[C@H](CCC(=O)O)NC(=O)[C@H]([C@@H](C)O)NC(=O)[C@@H]2CCCN2C(=O)[C@@H]2CCCN2C1=O [3BP-4222, N4Ac-Glu-Ttds-Nle-[Cys-(3MeBn)-Pro-Pro-Thr-Glu-Phe-Cys]-OH] ({X18-Suc}-[Nle]CPPTEFC-OH; linker 2-8 via mXylylene) | 10 to 79.4 | < 10 | – | – | 10 to 79.4
